{"source": "paper PMC10780244", "about": "“Antileishmanial Effect of 1,5- and 1,8-Substituted Fused Naphthyridines” (Molecules, 2023)"}
{"test": "Drug tolerance in murine intestinal organoids (alamarBlue)", "assay_type": "cell-based, mouse", "conditions": "Balb/c, mouse, murine intestinal organoids, 25 µM, 72 h exposure", "procedure": "(§1) Amastigotes obtained from mouse bone marrow cells were used to perform a first screening with the complete series of fused 1,5- and 1,8-naphthyridines. […] The toxicity of these selected compounds was assessed in non-infected splenic cells and the cytotoxic concentration (CC50) value obtained was used to calculate the selective index (SI). The oral tolerability of these same compounds was tested by calculating the viability of murine intestinal organoids exposed to two concentrations (50 and 25 µM).\n(§2) Preparation and maintenance of murine intestinal organoids cultures were performed following the protocols published by Stemcell Technologies™ (https://www.stemcell.com/intestinal-epithelial-organoid-culture-with-intesticult-organoid-growth-medium-mouse-lp.html#protocols, accessed on 14 December 2023) with some modifications. Briefly, a section of small intestine from a Balb/c mouse was extracted and washed with ice-cold PBS. This section was cut into pieces around 2 mm each, washed 15–20 times with ice-cold PBS and incubated with Gentle Cell Dissociation Reagent (Stemcell Technologies™, Vancouver, BC, Canada) for 20 min. Then, the pieces were resuspended in ice-cold PBS with 0.1% BSA and left to settle at the bottom of the tube. The supernatant was collected and filtered through a 70 µm strainer. This process was repeated a total of four times obtaining different fractions. Cells from these fractions were centrifugated at 300× g for 5 min at 4 °C, washed with ice-cold PBS + 0.1% BSA and resuspended on 10 mL of ice-cold DMEM/F12 supplemented with glutamine and HEPES 15 mM (Gibco, Thermo Fisher Scientific, Waltham, MA, USA). After the evaluation under a microscope, the fraction with the highest crypt number but the lowest detritus presence was chosen. This fraction was centrifugated at 200× g for 5 min at 4 °C and the pellet was resuspended in a 1:1 mix of Geltrex GFR LDEV-free (Gibco, Fisher Scientific, Waltham, MA, USA) and IntestiCult™ Organoid Grow Medium Mouse (Stemcell Technologies™, Vancouver, BC, Canada). Fifty microliters of the suspension were pipetted into the middle of each well of a pre-heated 24-well plate and incubated at 37 °C for 10 min to allow polymerization of the matrix. In the end, 500 µL of IntestiCult™ Organoid Grow Medium was added to each well. The plates were incubated at 37 °C and 5% CO2, changing the culture medium every 48 h. Organoids were split 1 into 4 plates after 7 days.\n(§3) Drug tolerance assays using murine intestinal organoids were performed in 384-well plates, following a protocol based on previous works and introducing several modifications. Briefly, organoids were prepared discarding the culture medium and adding 800 µL of Gentle Cell Dissociation Reagent (Stemcell Technologies™, Vancouver, BC, Canada) directly on top of matrix domes. After 1 min incubation at room temperature, the matrix was broken by pipetting, and the content of the wells was retrieved. The suspension was incubated at room temperature for 10 min on a rocking platform at 20 rpm, and centrifugated at 300× g for 5 min at 4 °C. The pellet was resuspended in 10 mL of ice-cold DMEM/F12 (Gibco, Fisher Scientific, Waltham, MA, USA) supplemented with glutamine and HEPES 15 mM and centrifugated again at 200× g for 5 min at 4 °C. Cells were resuspended in a 1:1 mix of Geltrex GFR LDEV-free and IntestiCult™ Organoid Grow Medium Mouse (Stemcell Technologies™, Vancouver, Canada). The final volume of the mix was calculated to achieve a 4-fold dilution in the final plate compared to the original plate. The mix was distributed in a 384-well plate (8 µL/well) which was incubated at 37 °C for 10 min. After that, 32 µL of IntestiCult™ Organoid Grow Medium Mouse (Stemcell Technologies™, Vancouver, Canada) were added to each well. The plate was incubated at 37 °C and 5% CO2 and after 4 days, mature organoids were exposed to drugs, alone or combined. For positive control, hydrogen peroxide at the final concentration of 0.15 % v/v was used. […]", "units": {"viability at 72 h, 25 µM": "%"}}
{"molecule": "Cc1ccc(S(=O)(=O)N2Cc3c(nc4ncc(Br)cc4c3-c3ccccc3)-c3ccccc32)cc1", "note": "[Compound 15b]", "viability at 72 h, 25 µM": "58 ± 16"}
{"molecule": "Cc1ccc(S(=O)(=O)N2CC3C(Nc4cccnc4[C@H]3c3ccccc3)c3ccccc32)cc1", "note": "(stereo partly drawn) [Compound 8a]", "viability at 72 h, 25 µM": "93 ± 7"}
{"molecule": "Cc1ccc(S(=O)(=O)N2CC3C(Nc4ccc(Br)nc4[C@H]3c3ccccc3)c3ccccc32)cc1", "note": "(stereo partly drawn) [Compound 8d]", "viability at 72 h, 25 µM": "4 ± 1"}
{"molecule": "COc1ccc2nc3c(c(-c4ccccc4)c2n1)c(=O)oc1ccccc13", "note": "[Compound 7c]", "viability at 72 h, 25 µM": "99 ± 4"}
{"molecule": "O=C1Oc2ccccc2C2Nc3ccc(Br)nc3[C@@H](c3ccccc3)C12", "note": "(stereo partly drawn) [Compound 6b]", "viability at 72 h, 25 µM": "72 ± 5"}
{"molecule": "c1ccc(-c2c3c(nc4ncccc24)-c2ccccc2OC3)cc1", "note": "[Compound 11a]", "viability at 72 h, 25 µM": "92 ± 1"}
{"molecule": "O=c1oc2ccccc2c2nc3ncccc3c(-c3ccccc3)c12", "note": "[Compound 13a]", "viability at 72 h, 25 µM": "87 ± 15"}
{"molecule": "Cc1ccc(S(=O)(=O)N2CC3C(Nc4ncccc4C3c3ccccc3)c3ccccc32)cc1", "note": "(stereo not drawn) [Compound 14a]", "viability at 72 h, 25 µM": "90 ± 9"}
{"molecule": "COc1ccc2c(n1)[C@@H](c1ccccc1)C1CN(S(=O)(=O)c3ccc(C)cc3)c3ccccc3C1N2", "note": "(stereo partly drawn) [Compound 8c]", "viability at 72 h, 25 µM": "> 100"}
{"molecule": "O=c1oc2ccccc2c2nc3ncc(Br)cc3c(-c3ccccc3)c12", "note": "[Compound 13b]", "viability at 72 h, 25 µM": "90 ± 5"}
{"molecule": "Fc1ccc2c(c1)C1Nc3ncccc3[C@@H](c3ccccc3)C1CO2", "note": "(stereo partly drawn) [Compound 10b]", "viability at 72 h, 25 µM": "99 ± 8"}
{"test": "Drug tolerance in murine intestinal organoids (alamarBlue)", "assay_type": "cell-based, mouse", "conditions": "Balb/c, mouse, murine intestinal organoids, 50 µM, 72 h exposure", "procedure": "as §1, §2, §3", "units": {"viability at 72 h, 50 µM": "%"}}
{"molecule": "Cc1ccc(S(=O)(=O)N2Cc3c(nc4ncc(Br)cc4c3-c3ccccc3)-c3ccccc32)cc1", "note": "[Compound 15b]", "viability at 72 h, 50 µM": "13 ± 3"}
{"molecule": "Cc1ccc(S(=O)(=O)N2CC3C(Nc4cccnc4[C@H]3c3ccccc3)c3ccccc32)cc1", "note": "(stereo partly drawn) [Compound 8a]", "viability at 72 h, 50 µM": "89 ± 10"}
{"molecule": "Cc1ccc(S(=O)(=O)N2CC3C(Nc4ccc(Br)nc4[C@H]3c3ccccc3)c3ccccc32)cc1", "note": "(stereo partly drawn) [Compound 8d]", "viability at 72 h, 50 µM": "3 ± 1"}
{"molecule": "COc1ccc2nc3c(c(-c4ccccc4)c2n1)c(=O)oc1ccccc13", "note": "[Compound 7c]", "viability at 72 h, 50 µM": "85 ± 13"}
{"molecule": "O=C1Oc2ccccc2C2Nc3ccc(Br)nc3[C@@H](c3ccccc3)C12", "note": "(stereo partly drawn) [Compound 6b]", "viability at 72 h, 50 µM": "60 ± 7"}
{"molecule": "c1ccc(-c2c3c(nc4ncccc24)-c2ccccc2OC3)cc1", "note": "[Compound 11a]", "viability at 72 h, 50 µM": "96 ± 1"}
{"molecule": "O=c1oc2ccccc2c2nc3ncccc3c(-c3ccccc3)c12", "note": "[Compound 13a]", "viability at 72 h, 50 µM": "53 ± 5"}
{"molecule": "Cc1ccc(S(=O)(=O)N2CC3C(Nc4ncccc4C3c3ccccc3)c3ccccc32)cc1", "note": "(stereo not drawn) [Compound 14a]", "viability at 72 h, 50 µM": "56 ± 14"}
{"molecule": "COc1ccc2c(n1)[C@@H](c1ccccc1)C1CN(S(=O)(=O)c3ccc(C)cc3)c3ccccc3C1N2", "note": "(stereo partly drawn) [Compound 8c]", "viability at 72 h, 50 µM": 100}
{"molecule": "O=c1oc2ccccc2c2nc3ncc(Br)cc3c(-c3ccccc3)c12", "note": "[Compound 13b]", "viability at 72 h, 50 µM": "61 ± 19"}
{"molecule": "Fc1ccc2c(c1)C1Nc3ncccc3[C@@H](c3ccccc3)C1CO2", "note": "(stereo partly drawn) [Compound 10b]", "viability at 72 h, 50 µM": 90}
{"test": "Cytotoxicity in uninfected murine splenic cells (alamarBlue)", "assay_type": "cell-based, mouse", "conditions": "mouse; uninfected splenic cells, 72 h, alamarBlue; read-out: Mouse Splenic Macrophages CC50", "procedure": "Amastigotes obtained from mouse bone marrow cells were used to perform a first screening with the complete series of fused 1,5- and 1,8-naphthyridines. […] The toxicity of these selected compounds was assessed in non-infected splenic cells and the cytotoxic concentration (CC50) value obtained was used to calculate the selective index (SI). The oral tolerability of these same compounds was tested by calculating the viability of murine intestinal organoids exposed to two concentrations (50 and 25 µM). In order to assess the in vitro safety of the naphthyridines, cytotoxicity assays were carried out in ex vivo splenic explants from uninfected mice, which were prepared as previously described to obtain intramacrophagic amastigotes. Cells were seeded at a density of 1 × 10^6 cells per well in 96-well plates containing the prediluted compounds and incubated at 37 °C and 5% CO2 during 72 h. AlamarBlue assay (Invitrogen, Fisher Scientific, Waltham, MA, USA) was used to estimate cell viability following manufacturer’s recommendations. The assays were performed by triplicate. Absorbance of viable cells vs. compound concentrations were fitted by nonlinear analysis using the Sigma Plot 10.1 statistical package to calculate the cytotoxic concentration 50 (CC50) values. Selectivity index (SI) was calculated as the ratio between CC50 and the EC50 values of intramacrophagic amastigotes.", "units": {"CC50 at 72 h": "µM"}}
{"molecule": "Cc1ccc(S(=O)(=O)N2Cc3c(nc4ncc(Br)cc4c3-c3ccccc3)-c3ccccc32)cc1", "note": "[Compound 15b]", "CC50 at 72 h": "24.6 ± 3.59"}
{"molecule": "Cc1ccc(S(=O)(=O)N2CC3C(Nc4cccnc4[C@H]3c3ccccc3)c3ccccc32)cc1", "note": "(stereo partly drawn) [Compound 8a]", "CC50 at 72 h": "45 ± 3.91"}
{"molecule": "Cc1ccc(S(=O)(=O)N2CC3C(Nc4ccc(Br)nc4[C@H]3c3ccccc3)c3ccccc32)cc1", "note": "(stereo partly drawn) [Compound 8d]", "CC50 at 72 h": "> 50"}
{"molecule": "COc1ccc2nc3c(c(-c4ccccc4)c2n1)c(=O)oc1ccccc13", "note": "[Compound 7c]", "CC50 at 72 h": "97.7 ± 1.77"}
{"molecule": "O=C1Oc2ccccc2C2Nc3ccc(Br)nc3[C@@H](c3ccccc3)C12", "note": "(stereo partly drawn) [Compound 6b]", "CC50 at 72 h": "55.7 ± 6.42"}
{"molecule": "c1ccc(-c2c3c(nc4ncccc24)-c2ccccc2OC3)cc1", "note": "[Compound 11a]", "CC50 at 72 h": "> 100"}
{"molecule": "O=c1oc2ccccc2c2nc3ncccc3c(-c3ccccc3)c12", "note": "[Compound 13a]", "CC50 at 72 h": "34.6 ± 1.79"}
{"molecule": "Cc1ccc(S(=O)(=O)N2CC3C(Nc4ncccc4C3c3ccccc3)c3ccccc32)cc1", "note": "(stereo not drawn) [Compound 14a]", "CC50 at 72 h": "27.2 ± 1.55"}
{"molecule": "COc1ccc2c(n1)[C@@H](c1ccccc1)C1CN(S(=O)(=O)c3ccc(C)cc3)c3ccccc3C1N2", "note": "(stereo partly drawn) [Compound 8c]", "CC50 at 72 h": "> 100"}
{"molecule": "O=c1oc2ccccc2c2nc3ncc(Br)cc3c(-c3ccccc3)c12", "note": "[Compound 13b]", "CC50 at 72 h": "> 50"}
{"molecule": "Fc1ccc2c(c1)C1Nc3ncccc3[C@@H](c3ccccc3)C1CO2", "note": "(stereo partly drawn) [Compound 10b]", "CC50 at 72 h": "50.7 ± 0.99"}
